Publication PMC8593400, “Effective Search of Triterpenes with Anti-HSV-1 Activity Using a Classification Model by Logistic Regression” (Frontiers in Chemistry, 2021)
Entries after “also recorded” stand apart in the source; their conditions may differ. Read-outs that look alike come from different tables or passages of the source. Each block holds one compound with its values, some of them ahead of it.

How the values were obtained:
[1] = cytotoxicity, CellTiter-Glo 3D cell viability assay; assay type: cell-based; settings: African green monkey
Procedure: (§1) All test compounds were evaluated their cytotoxicity by using CellTiter-Glo 3D® cell viability assay ([Matsumoto et al., 2020]). Briefly, Vero cells (3.0 × 10^3 cells/ well) were seeded in 96-well plates (96F Nunclon TM Delta Microwell SI; Thermo Fisher Scientific), and precultured for 24 h. The cells were treated with test compounds (10 μL/well). After 48 h, CellTiter-Glo® 3D Reagent (Promega, Madison, WI, United States) was added at 100 μL per well, mixed by shaking for 5 min at RT, and incubated for 25 min at 37°C. The cell-containing media were transferred to a 96-well white plate (96F Nunclon TM Delta White Microwell SI; Thermo Fisher Scientific). Luminescence was measured with a luminometer (FLUOstar OPTIMA®; BMG Labtech, Ortenberg, Germany).

Vero cells = assay: as above; assay type: cell-based
Procedure: as §1

[2] = test system: HSV-1 (HF strain: acyclovir-sensitive); assay: plaque reduction assay on Vero cells (anti-HSV-1 activity); assay type: cell-based, herpes simplex virus type 1; settings: for IC50: 50% inhibitory concentration, plaque reduction
Procedure: Antiviral effects against HSV-1 (HF strain: acyclovir-sensitive) were evaluated using a plaque reduction assay with some modifications as previously reported ([Ogawa et al., 2018]). The activity of all test compounds was measured at 25 μM, corresponding to the threshold of the prediction model. […] The protocol was performed follows.
Vero cells were maintained in Dulbecco’s Modified Eagle Medium (DMEM) supplemented with 10% fetal calf serum (FBS). Vero cells (1.7–2.8 × 10^5 cells/well) were seeded onto a 12-well tissue culture plate and precultured for 1–2 days. The cells were inoculated with 100 plaque-forming units (PFU) of HSV-1 in 0.1 ml of FBS-free DMEM. After 30 min, the inoculum was removed. HSV-infected cells were maintained in DMEM containing 10% FBS, methylcellulose, and serially diluted test compounds. After 48 h of incubation at 37°C, the medium was removed. The cell sheets were stained with 1% crystal violet dissolved in 50% methanol, and the number of plaques larger than 0.4 mm was counted. HSV-1 replication causes cytopathic effects, resulting in plaque formation. The number and size of plaques reflected virus yields. To examine the effect of virus yield reduction, the total plaque number in cells untreated with the compound was defined as 100% and set as the control group. The significant difference of test compounds at 25 μM from the control group was calculated using the Student’s t-test. The significant difference of each concentration of 10–13 and 16 from the control group was calculated by Dunnett’s test. Probability (p) values less than 0.05 were considered to be significant (^* p < 0.05, ^** p < 0.01).

HSV-1 = settings: cited from earlier work; for anti-HSV-1 activity previously reported: ref Rattanathongkom et al., 2009
[3] = set-up: method as in Rattanathongkom et al., 2009; settings: ref Rattanathongkom et al., 2009; cited from earlier work
[4] = Human alphaherpesvirus 1, Vero, 48 h, 5 μM, plaque number vs untreated control, Vero cells, 48 h, read-out: Inhibitory rate (%) 5 μM
[5] = Human alphaherpesvirus 1, Vero, 48 h, 10 μM, plaque number vs untreated control, Vero cells, 48 h, read-out: Inhibitory rate (%) 10 μM
[6] = Human alphaherpesvirus 1, Vero, 48 h, 25 μM, plaque number vs untreated control, Vero cells, 48 h, read-out: Inhibitory rate (%) 25 μM
[7] = Human alphaherpesvirus 1, Vero, 48 h, read-out: Inhibitory rate (%) 25 μM, 25 μM, plaque number vs untreated control, Vero cells, 48 h
[8] = Human alphaherpesvirus 1, Vero, Vero cells, read-out: IC50

Compound: C=C1CCC2(C(=O)OC3OC(CO)C(O)C(O)C3O)CCC3(C)C(=CCC4C5(C)CCC(OC6OC(C(=O)O)C(O)C(O)C6O)C(C)(C)C5CCC43C)C2C1 (centres unmarked) [Compound 12, boussingoside A2]
viability at 48 h, 25 µM ([1]; Cell viability (%)): 112 ± 6.79%
viability at 48 h, 50 µM ([1]; Cell viability (%)): 111 ± 9.73%
cytotoxicity in words (Vero cells): no cytotoxicity
anti-HSV-1 activity in words (significance vs control) ([2]; 25 μM): significant activity; also recorded: moderate anti-HSV-1 activity
inhibition at 5 µM [2, 4]: 4.42 ± 8.12%
inhibition at 10 µM [2, 5]: 2.77 ± 11.6%
inhibition at 25 µM [2, 6]: 24.7 ± 10.2%

Compound: CC(C)(O)CCC(=O)[C@](C)(O)[C@H]1CC[C@@]2(O)C3=CC(=O)[C@@H]4C[C@@H](O)[C@@H](O)C[C@]4(C)C3CC[C@]12C (some centres unmarked) [Compound 15, 22-oxo-20-hydroxyecdysone]
viability at 48 h, 25 µM ([1]; Cell viability (%)): 115 ± 3.93%

Compound: C=C1CC[C@]2(C(=O)O)[C@@H](O)C[C@]3(C)C(=CC[C@@H]4[C@@]5(C)CC[C@H](O)C(C)(C)[C@@H]5CC[C@]43C)[C@@H]2C1 [Compound 6, pfaffianol A]
viability at 48 h, 25 µM ([1]; Cell viability (%)): 122 ± 6.84%
inhibition at 25 µM [2, 6]: 12.4 ± 16.9%

Compound: cucurbitacin B [reference compound]
anti-HSV-1 activity (HSV-1; ref Hassan et al., 2017): strong anti-HSV-1 activity
selectivity index (HSV-1; ref Hassan et al., 2017): high

Compound: CC1(C)CC[C@]2(C(=O)O)CC[C@]3(C)C(=CCC4[C@@]5(C)C[C@H](O)[C@H](O)[C@@](C)(CO)C5CC[C@]43C)[C@@H]2C1 (some centres unmarked) [Compound 2, bayogenin]
viability at 48 h, 25 µM ([1]; Cell viability (%)): 117 ± 6.99%

Compound: C[C@@H](C1CC[C@@]2(C)C3=C(CC[C@]12C)[C@@]1(C)CC[C@H](O)C(C)(C)C1CC3)[C@H](O)/C=C/C(C)(C)OO (stereo partly drawn) [Compound 17, 3β,22R-Dihydroxylanosta-8,23E-diene-25-peroxide]
viability at 48 h, 25 µM ([1]; Cell viability (%)): 16.8%

Compound: CC(C)[C@@H](O)C[C@@H](O)[C@](C)(O)[C@H]1CC[C@@]2(O)C3=CC(=O)[C@@H]4C[C@@H](O)[C@@H](O)C[C@]4(C)[C@H]3CC[C@]12C [Compound 7, pterosterone]
viability at 48 h, 25 µM ([1]; Cell viability (%)): 115 ± 3.95%

Compound: C[C@@H]1CC[C@]2(C(=O)O)CC[C@]3(C)C(=CC[C@@H]4[C@@]5(C)C[C@@H](O)[C@@H](O)C(C)(C)[C@@H]5CC[C@]43C)[C@@H]2[C@]1(C)O [Compound 1, Euscaphic acid]
viability at 48 h, 25 µM ([1]; Cell viability (%)): 117 ± 5.2%
inhibition at 25 µM [2, 6]: 0%

Compound: CC1(C)CC[C@]2(C(=O)O[C@@H]3O[C@H](CO)[C@@H](O)[C@H](O)[C@H]3O)CC[C@]3(C)C(=CC[C@@H]4[C@@]5(C)CC[C@H](O[C@@H]6O[C@H](C(=O)O)[C@@H](O)[C@H](O)[C@H]6O)C(C)(C)[C@@H]5CC[C@]43C)[C@@H]2C1 [Compound 11, chikusetsusaponin IVa]
viability at 48 h, 25 µM ([1]; Cell viability (%)): 112 ± 4.45%
viability at 48 h, 50 µM ([1]; Cell viability (%)): 113 ± 6.08%
anti-HSV-1 activity previously reported (HSV-1): exhibit anti-HSV-1 activity
anti-HSV-1 activity in words (significance vs control) ([2]; 25 μM): significant activity
Inhibitory rate (%) 25 μM ([2]; 25 μM, plaque number vs untreated control, Vero cells, 48 h, 25 µM): 51.82 ± 9.61^** %
IC50 ([2]; Vero cells): 13.1 µM
IC50 ([2]; Human alphaherpesvirus 1, Vero, Vero cells): < 25 µM
inhibition at 5 µM ([2]; Human alphaherpesvirus 1, Vero, 48 h, read-out: Inhibitory rate (%) 5 μM, 5 μM, plaque number vs untreated control, Vero cells, 48 h): 14.6 ± 15%
inhibition at 10 µM ([2]; Human alphaherpesvirus 1, Vero, 48 h, read-out: Inhibitory rate (%) 10 μM, 10 μM, plaque number vs untreated control, Vero cells, 48 h): 36.8 ± 17.4%
inhibition at 25 µM [2, 7]: 51.8 ± 9.61%

Compound: CC(C)=CCC[C@@H](C)[C@H]1CC[C@@]2(C)C3=C(CC[C@]12C)[C@@]1(C)CC[C@H](O)C(C)(C)[C@@H]1CC3 [Compound 19, lanosterol]
viability at 48 h, 25 µM ([1]; Vero cells, 25 μM, Vero cells, 48 h, read-out: Cell viability (%)): 101 ± 4.72%
inhibition at 25 µM [2, 7]: 20.4 ± 8.49%

Compound: CC1(C)CC[C@]2(C(=O)O)CC[C@]3(C)C(=CC[C@@H]4[C@@]5(C)CC[C@H](O)C(C)(C)[C@@H]5CC[C@]43C)[C@@H]2C1 [oleanolic acid, reference compound]
inhibition at 5 µM [2, 4]: 9.02 ± 4.22%
inhibition at 25 µM [2, 6]: 21.4 ± 11.6%

Compound: CC(C)C(C)CCC(C)C1CCC2C1(C)CCC1C23C=CC2(CC(O)CCC12C)OO3 (stereo not drawn) [Compound 16, 5α,8α-epidioxyergosta-3β-ol]
viability at 48 h, 25 µM ([1]; Cell viability (%)): 130 ± 6.83%
viability at 48 h, 50 µM ([1]; Cell viability (%)): 2.96 ± 1.77%
anti-HSV-1 activity in words (significance vs control) ([2]; 25 μM): significant activity
inhibition at 5 µM [2, 4]: -2.49 ± 8.74%
inhibition at 10 µM [2, 5]: 0%
inhibition at 25 µM [2, 6]: 27.2 ± 5.52%

Compound: CC(C)=CCC[C@@H](C=O)[C@H]1CC[C@@]2(C)C3=C(CC[C@]12C)[C@@]1(C)CC[C@H](O)C(C)(C)[C@@H]1CC3 [Compound 18, 3β-hydroxylanosta-8,24-dien-21-al]
viability at 48 h, 25 µM ([1]; Cell viability (%)): 113 ± 4.93%
inhibition at 25 µM [2, 6]: 1.24 ± 3.8%

Compound: C[C@]12C[C@H](O)[C@H](O)C[C@H]1C(=O)C=C1[C@@H]2CC[C@]2(C)[C@@H](O)CC[C@@]12O [Compound 9, 2β,3β,14α,17β-tetrahydroxy-5β-androst-7-en-6-one]
viability at 48 h, 25 µM ([1]; Cell viability (%)): 106 ± 3.86%

Compound: C=C1CCC2(C(=O)O)C(O)CC3(C)C(=CCC4C5(C)CCC(OC6OC(C(=O)O)C(O)C(O)C6O)C(C)(C)C5CCC43C)C2C1 (centres unmarked) [Compound 4, Pfaffiaglycoside B]
viability at 48 h, 25 µM ([1]; Cell viability (%)): 108 ± 4.17%
inhibition at 25 µM [2, 6]: 7.64 ± 10.7%

IC50 ([2]; Vero cells, read-out: IC50): 14.1 µM
IC50 [2, 8]: < 25 µM
Compound: CC1(C)CCC2(C(=O)O)CCC3(C)C(=CCC4C5(C)CCC(OC6OC(C(=O)O)C(O)C(O)C6O)C(C)(C)C5CCC43C)C2C1 [Compound 10, oleanolic acid 3-O-β-D-glucuronopyranoside]
cytotoxicity previously reported [3]: cytotoxicity
viability at 48 h, 10 µM ([1]; Cell viability (%)): 104 ± 9.28%
viability at 48 h, 25 µM ([1]; Cell viability (%)): 14.6%
viability at 48 h, 50 µM ([1]; Cell viability (%)): 1.47 ± 0.54%
cytotoxicity in words (Vero cells): showed cytotoxicity
Cell viability (%) (Vero cells; African green monkey, 48 h, 10 µM): 104.0 ± 9.28%
anti-HSV-1 activity previously reported (HSV-1): did not show any anti-HSV-1 activity
anti-HSV-1 activity in words (significance vs control) ([2]; 25 μM): significant activity
inhibition at 5 µM [2, 4]: 5.85 ± 8.4%
inhibition at 10 µM [2, 5]: 27.5 ± 8.92%
inhibition at 25 µM [2, 6]: 83.3 ± 41.1%

Compound: CC1(C)C(=O)CC[C@@]2(C)C1CC[C@]1(C)C2CC=C2[C@@H]3C[C@](C)(C(=O)O)CC[C@]3(C(=O)O)CC[C@]21C (stereo partly drawn) [Compound 5, (20α)-3-oxoolean-12-ene-28,29-dioic acid]
viability at 48 h, 25 µM ([1]; Cell viability (%)): 122 ± 5.6%

IC50 [2, 8]: 3.08 µM
Compound: Nc1nc2c(ncn2COCCO)c(=O)[nH]1 [acyclovir, reference compound]
viability at 48 h, 10 µM ([1]; Vero cells, 10 μM, Vero cells, 48 h, read-out: Cell viability (%)): 103 ± 13.8%
inhibition at 2.5 µM ([2]; Human alphaherpesvirus 1, Vero, 48 h, 2.5 μM, plaque number vs untreated control, Vero cells, 48 h, read-out: Inhibitory rate (%) 2.5 μM): 57.5 ± 11.9%
inhibition at 10 µM [2, 5]: 96 ± 11.8%

Compound: C[C@H](C/C=C/C(C)(C)OO)C1CC[C@@]2(C)C3=C(CC[C@]12C)[C@@]1(C)CC[C@H](O)C(C)(C)C1CC3 (stereo partly drawn) [Compound 20, (3β,23E)-25-hydroperoxylanosta-8,23-dien-3-ol]
inhibition at 25 µM [2, 6]: 19 ± 9.25%

Compound: CC(C)(O)CCC[C@](C)(O)[C@H]1CC[C@@]2(O)C3=CC(=O)[C@@H]4C[C@@H](O)[C@@H](O)C[C@]4(C)C3CC[C@]12C (some centres unmarked) [Compound 8, taxisterone]
viability at 48 h, 25 µM ([1]; Cell viability (%)): 122 ± 4.78%
